# Reference: US5395611A, “Phenolic amine depigmenting and antimelanoma agents” (The Governors of the University of Alberta, priority 1992, dated 1995)
# “Also recorded” adds a separate entry of the source.
# Legend:
# [1] = tested on: melanoma; settings: in words; cited from earlier work
# [2] = tested on: follicular melanocytes; settings: in words; cited from earlier work
# [3] = acute toxicity, evaluated 100 to 1600 mg/Kg (Miura et al); cited from earlier work
# [4] = tested on: black hair follicles; assay: Depigmentation of new hair (eumelanin/PTCA content); assay type: in vivo, C57BL/6J black mice; settings: for Depigmentation of new growth of black hair follicles: in words; for PTCA Content / Depigmentation: 300 mg/kg daily for 14 days, hair day 22
# Experimental: Female progeny were used in this testing when approximately 8 weeks old and weighing 17 grams.
# Thirty mice were randomized into 6 groups of 5 (1 control and 1 for each compound). Starting on day 1, daily for 14 days the agent was injected i.p. or was infiltrated s.c. in an area where hair follicles had been plucked; the dose was 300 mg/kg body weight.
# In the same 30 mice, hair follicles were harvested on day 22 (early telogen phase) and their eumelanin content analyzed. […] Briefly, a 10-mg hair sample is homogenized in water at a concentration of 10 mg/ml; the 200-μl homogenate is transferred to a screw-capped test tube, mixed with 1M H2 SO4 (800 μL) and oxidized with 3% KMnO4. The product, pyrrole-2,3,5-tricarboxylic acid (PTCA), is analyzed by HPLC with a UVL detector; samples are measured in duplicate. The eumelanin content is expressed as PTCA (ng/mg) against the PCTA content of BALB/c albino mice as control (≤10 ng/mg, the background value with our method, in which 1 ng corresponds roughly to a eumelanin content of 50 ng), and the degree of depigmentation is expressed as a percentage: (PTCA content of control sample minus PTCA content of experimental sample)/(PCTA content of control sample)×100.
# [5] = tested on: mushroom tyrosinase; assay: Enzyme kinetics for tyrosinase; assay type: biochemical; settings: in words
# Experimental: (§1) Mushroom tyrosinase (400 units/mg) and plasma MAO (1000 units/gm) were obtained from Sigma Chemical Co. (St. Louis, Mo., USA). A reaction mixture consisted of a substrate of 7 to 8 different concentrations (40 to 500 μM for mushroom tyrosinase and 20 to 200 μM for MAO) and of either mushroom tyrosinase (2.5 μg) or MAO (10 μg) in 1.0 mL of 0.05M sodium phosphate buffer, pH 6.8 and 7.4 respectively. The reactions were carried out at 37° C. in a shaking water bath, and stopped by taking 100 μL of the reaction mixture and adding it to 900 μL of 0.4M HCLO4. The disappearance of substrate was followed using HPLC (high pressure liquid chromatography) Km and Vmax values were calculated from the Lineweaver-Burk plots.
# ^a mushroom tyrosinase; 11 unit/ml of tyrosinase was used. One enzyme
# unit will cause an increase in A280 of 0.001 per min at pH 6.8 at
# 25° C. using Ltyrosine as substrate.
# [6] = tested on: plasma monoamine oxidase (MAO); assay: Enzyme kinetics for monoamineoxidase (plasma MAO); assay type: biochemical; settings: in words
# Experimental: as §1
# [7] = in vivo; settings: mouse
# Experimental: 3:1-85 1972. In accordance with this Protocol, ten to fifteen mice were used in each test group. They were weighed and randomized at day one after s.c. inoculation of B16 melanoma cells. From day five, the phenolic melanin precursors were administered i.p. daily for nine days. The test compounds were dissolved in normal saline, and sterilized by heating to 100° C. for 2 minutes. […] They were administered j.p. with the following doses: 400 mg/Kg - 4-S-CAP; 200 to 300 mg/Kg - 4-S-CAP; and 200 to 1200 mg/Kg - N-Ac-4-S-CAP. A catalytic amount of L-dopa, 25 mg/Kg and antidecarboxylase, carbidopa, 400 mg/Kg, were also administered. Carbidopa was given one hour prior to L-dopa administration. DTIC (NSC 4538) was used as a control drug at a dose of 60 mg/Kg. Acute toxicity of 4-S-CP and 4-S-CAP was evaluated from 100 to 1600 mg/Kg.
# The B16 mouse melanoma was maintained by s.c. inoculation of tumour cells into the back of C57BL7J mice (5 to 6 weeks, female). […] Briefly, excised tumours were homogenized in normal saline. The homogenized tumour cells were then passed through a sterile 80 mesh stainless steel screen, washed with normal saline, centrifuged (500 g. for 10 minutes) and resuspended in normal saline. Suspensions of viable melanoma cells at the concentration of 1×10^6 per 0.1 ml were inoculated s.c. into both the right and left inguinal areas of C57BL/6J mice (female, 5 to 6 weeks old, 18 to 20 gm).
# [8] = tested on: B16 melanoma; assay: In vivo growth inhibition of s.c. inoculated B16 melanoma; parameters: species or system mouse
# Experimental: Briefly, excised tumours were homogenized in normal saline.
# The in vivo antimelanoma effect of the compounds were evaluated by percent growth inhibition of inoculated tumour (% g.i.). The percent g.i. was computed from the mean tumour volume at day 12 or 13 of the experiments; i.e., 100× (1- treated group/control group). Tumour volume was calculated by the following formula:
# tumour volume=long axis×(short axis)^2 ×1/2.
# [9] = tested on: B16F10 melanoma colonies; assay: Melanoma-colony formation in the lungs; assay type: in vivo, mouse
# Experimental: Murine B16F10 melanoma cell line with a strong metastatic property to form tumour colonies in the lungs was obtained from Dr. Longenecker, Department of Immunology, University of Alberta. Such cell line is well recognized and readily available as reported in Miura et al, supra. The cells were grown in T-75 flasks in dulbecco's MEM available from Gipco Lab Inc., Grand Island, N.Y., supplemented with 10% fetal calf serum, also obtained from Gipco, penicillin (100 μ/ml) and streptomycin (100 μg/ml). The cells were incubated at 37° C. in humidified atmosphere of 5% CO2 in air. […] Viable cells were identified by trypan blue dye exclusion and counted. The cell suspension was diluted to the desired concentration. […] On day zero, the mice were inoculated via the lateral tail vein with 5×10^4 cells in 0.2 ml of N saline. The test drugs were dissolved in normal saline, sterilized by membrane filtration, and administered in a dose of 300 mg/Kg (4 -S-CAP) or 900 mg/Kg (N-Ac-4-S-CAP); starting on day five, the control solution or drug was injected i.p. daily for 14 days. On day 26, the mice were killed by cervical dislocation, their lungs were removed, and the number of melanoma colonies was counted under a dissecting microscope. The results were expressed as percentage reduction in the number of colonies: [a-b/a]×100, where a=colonies in control group and b=colonies in experimental group.
# [10] = Urinary excretion after i.p. injection (metabolic assay); assay type: in vivo, mice
# Experimental: Fifteen mice randomly divided into three groups of five were injected i.p. with a test agent (300 mg/kg) dissolved in N saline solution. Group 1 were injected with 4-S-CAP, group 2 with N-Ac-4-S-CAP, group 3 were controls. The mice are kept in metabolic cages; their urine is collected 3, 8 and 24 hr after injection, and the 4-S-CAP and N-Ac-4-S-CAP content is measured by HPLC in a system consisting of a Waters 600E liquid chromatography, with a Bondapak C18 column (3.0×300 mm; particle size, 10 μm) and a Waters 460 electrochemical detector. Mobile phase: 0.1M potassium phosphate buffer, pH 2.1, containing 0.1 mM Na2 EDTA methanol, 80:20 (v/v); column temperature, 60° C.; flow rate 1.0 ml/min. Urine samples are hydrolysed with 0.1M HCl before assay, and the phenols are detected at 850 mV against an Ag/AgCl reference electrode.
# [11] = tested on: melanocytes; assay: Light and electron microscopy of follicular melanocytes; assay type: in vivo, mice; settings: for Cytotoxicity for follicular depigmentation: conclusion in words; for Electron microscopy of melanocytes/melanosomes: 10 days
# Experimental: In […] of 4 mice (1 control and 1 for each compound) were treated daily with the control or compound injected i.p. The compounds tested were 4-S-CAP, N-Ac-4-S-CAP and α-Me-4-S-CAP. Samples of skin and regrowing hair follicles were excised under brief general anaesthesia on day 10 (late anagen phase), fixed in Karnovsky's solution (2.5% glutaraldehyde and 2.5% paraformaldehyde in 011M cacodylate buffer), and refixed in 1% osmium tetroxide in cadodylate buffer. Tissues were stained en bloc with 1.5% uranyl acetate in o.1M veronal buffer for 30 min, dehydrated in graded ethanol solutions, embedded in epoxy resin, and sectioned with a Potter-Blum ultramicrotome MT II. Sections 1.0 μm thick were stained with methylene blue for light microscopy, thin sections were stained with led citrate for electron microscopy.
# [12] = hydroquinone preparations; cited from earlier work
# [13] = tested on: skin; settings: cited from earlier work
smiles,measurement,setting,value
"NC(CSc1ccc(O)cc1)C(=O)O (stereo not drawn) [4-S-CP, 4-S-cysteinylphenol]",Inhibition of melanoma growth,[1],"some inhibition of melanoma growth, although not as active as the 4-S-CAP"
same,Effect on black hair follicles / black hair,[2],depigmentation of black hair as manifested by loss of functioning melanocytes
same,Lethal dose,[3],600 mg/kg
NCCCSc1ccc(O)cc1 [4-S-HomoCAP],Depigmentation of new growth of black hair follicles,[4],much more depigmentation when given s.c. than i.p.
same,PTCA Content,[4]; s.c.,397.7 ± 279.3 ng/mg
"CN(C)CCSc1ccc(O)cc1 [N,N-DiMe-4-S-CAP]",Depigmentation,[4]; i.p.,7.3%
same,PTCA Content,[4]; i.p.,1009.0 ± 193.5 ng/mg
same,Depigmentation of new growth of black hair follicles,[4],the lowest; also recorded: no significant depigmentation
same,Depigmentation of new growth of black hair follicles,"[4]; listed as N,N-Di-Me-4-S-CAP",no visible changes in pigmentation in new follicles
same,Depigmentation,[4]; s.c.,6.1%
same,PTCA Content,[4]; s.c.,1023.4 ± 110.1 ng/mg
"CC(=O)NCCSc1ccc(O)cc1 [N-Ac-4-S-CAP, N-ACETYL-4-S-CYSTEAMINYLPHENOL]",Substrate for tyrosinase,[5],tyrosinase substrate
same,Substrate for plasma MAO,[6],"not, however, a substrate for plasma MAO"
same,Single dose toxicity level,[7],"~1,400 mg/kg of body weight"
same,LD50,[7]; ip,≤ 1400 mg/kg
same,MTD,[7]; ip,1200 mg/kg
same,% Gi (growth inhibition),"[8]; Experiment I, 200 mg/Kg",39.8%
same,% Gi (growth inhibition),"[8]; Experiment I, 400 mg/Kg",57.3%
same,% Gi (growth inhibition),"[8]; Experiment I, 600 mg/Kg",63.18%
same,% Gi (growth inhibition),"[8]; Experiment I, 800 mg/Kg",74.4%
same,% Gi (growth inhibition),"[8]; Experiment II, 200 mg/Kg",32.0%
same,Tumour Volume,"[8]; Experiment II, 200 mg/Kg",370 ± 37 mm^3
same,% Gi (growth inhibition),"[8]; Experiment II, 400 mg/Kg",34.0%
same,% Gi (growth inhibition),"[8]; Experiment II, 800 mg/Kg",63.4%
same,% Gi (growth inhibition),"[8]; Experiment II, 1200 mg/Kg",70.7%
same,Growth inhibition of B16 melanoma,[8]; in words,dose-dependent linear growth inhibition; also recorded: significant reduction in size of s.c. inoculated melanoma
same,"Colonies, % control","[9]; 900 mg/kg i.p. daily for 14 days, day 26",24.9%
same,Number of B16F10 melanoma colonies,[9]; in words,significantly reduced
same,Melanoma lung colonies reduced to % of original volume,[9]; summary statement,25%
same,"Urinary excretion of unchanged compound, amount","[10]; 3 h after i.p. injection, 5.2 mg/mouse, unit printed ng",7.23e-07 ± 2.7e-08 mg
same,"Urinary excretion of unchanged compound, amount","[10]; 8 h after i.p. injection, 5.2 mg/mouse",1.034 ± 0.033 mg
same,"Urinary excretion of unchanged compound, amount","[10]; 24 h after i.p. injection, 5.2 mg/mouse",1.089 ± 0.028 mg
same,"i.p. dose excreted as 4-S-CAP, amount","[10]; urine, i.p. injection",0.066 ± 0.003 mg
same,dose excreted at 3 h,"[10]; urine, ip, 300 mg/kg, 3 h after i.p. injection, 5.2 mg/mouse, read-out: Urinary excretion of unchanged compound, % of dose",13.9%
same,dose excreted at 8 h,"[10]; urine, ip, 300 mg/kg, 8 h after i.p. injection, 5.2 mg/mouse, read-out: Urinary excretion of unchanged compound, % of dose",19.8%
same,dose excreted at 24 h,"[10]; urine, ip, 300 mg/kg, 24 h after i.p. injection, 5.2 mg/mouse, read-out: Urinary excretion of unchanged compound, % of dose",20.4%
same,Depigmentation of new growth of black hair follicles,[4],most marked; also recorded: no statistically significant difference in melanin content between hair follicles with N-Ac-4-S-CAP and control albino mice
same,Cytotoxicity for follicular depigmentation,[11],greatest cytotoxicity for follicular depigmentation
same,Electron microscopy of melanocytes/melanosomes,[11]; i.p.,no melanocytes or melanosomes were visible
same,Light microscopy of hair follicles,"[11]; i.p., day 10",neither functioning melanocytes nor melanin pigments remained in the follicles
Oc1ccc(O)cc1 [hydroquinone],Stability,[12],very unstable
same,Skin irritation,[13]; hydroquinone preparations,cause skin irritation
same,Permanent whitening of the skin,[13]; prolonged period and high concentration,can also cause permanent whitening of the skin
COC(=O)C(N)CSc1ccc(O)cc1 (stereo not drawn) [methyl ester of 4-S-CP],Inhibition of melanoma growth,[1],"some inhibition of melanoma growth, although not as active as the 4-S-CAP"
CC(N)CSc1ccc(O)cc1 (stereo not drawn) [α-Me-4-S-CAP],Single dose toxicity level,[7],~500 mg/kg of body weight
same,Depigmentation,"[4]; i.p., 300 mg/kg",89%
same,Depigmentation of new growth of black hair follicles,[4],i.p. administration induced more depigmentation than s.c.
same,Irritation of the skin,"[4]; s.c. administration, plucked area",some irritation of the skin in the plucked area
same,Depigmentation,"[4]; s.c., 300 mg/kg",58%
same,Cytotoxicity for follicular depigmentation,[11],greatest cytotoxicity for follicular depigmentation
same,Electron microscopy of melanocytes/melanosomes,[11]; i.p.,contained immature melanosomes at stages II and III
